Measured values from PubChem BioAssay (NCI).
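These data come from cells grown in 96-well plates and exposed to compound for 48 hours at five concentrations. Here, GI50 denotes the concentration required for 50% inhibition of growth. TGI denotes the concentration required for complete inhibition of growth.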

How the values were obtained:
Experiment in all cases: NCI anticancer screen, dose series, 48 h
786-0 renal = test system: 786-0 renal
COLO 205 colon = test system: COLO 205 colon
NCI-H522 lung = test system: NCI-H522 lung
SR leukemia = test system: SR leukemia
HCT-116 colon = test system: HCT-116 colon
SK-OV-3 ovarian = test system: SK-OV-3 ovarian
HOP-62 NSCLC = test system: HOP-62 NSCLC
HT29 colon = test system: HT29 colon
UO-31 renal = test system: UO-31 renal
PC-3 prostate = test system: PC-3 prostate
SNB-19 CNS = test system: SNB-19 CNS
A549 NSCLC = test system: A549 NSCLC
DU-145 prostate = test system: DU-145 prostate
MOLT-4 leukemia = test system: MOLT-4 leukemia
CCRF-CEM leukemia = test system: CCRF-CEM leukemia
T-47D breast = test system: T-47D breast
HCC-2998 colon = test system: HCC-2998 colon
NCI-H23 lung = test system: NCI-H23 lung
UACC-62 melanoma = test system: UACC-62 melanoma
UACC-257 melanoma = test system: UACC-257 melanoma
OVCAR-3 ovarian = test system: OVCAR-3 ovarian
SF-268 CNS = test system: SF-268 CNS
HCT-15 colon = test system: HCT-15 colon
MCF7 breast = test system: MCF7 breast
K-562 leukemia = test system: K-562 leukemia
MDA-MB-435 = test system: MDA-MB-435
OVCAR-5 ovarian = test system: OVCAR-5 ovarian
MALME-3M melanoma = test system: MALME-3M melanoma
CAKI-1 renal = test system: CAKI-1 renal
SNB-75 CNS = test system: SNB-75 CNS
M14 melanoma = test system: M14 melanoma
EKVX NSCLC = test system: EKVX NSCLC
SN12C renal = test system: SN12C renal
SK-MEL-2 melanoma = test system: SK-MEL-2 melanoma
RXF 393 renal = test system: RXF 393 renal
NCI/ADR-RES ovarian = test system: NCI/ADR-RES ovarian
MDA-MB-231 breast = test system: MDA-MB-231 breast
BT-549 breast = test system: BT-549 breast
U251 CNS = test system: U251 CNS
OVCAR-8 ovarian = test system: OVCAR-8 ovarian
IGROV1 ovarian = test system: IGROV1 ovarian
RPMI-8226 leukemia = test system: RPMI-8226 leukemia
SK-MEL-28 melanoma = test system: SK-MEL-28 melanoma
KM12 colon = test system: KM12 colon
LOX IMVI melanoma = test system: LOX IMVI melanoma
TK-10 renal = test system: TK-10 renal
SW-620 colon = test system: SW-620 colon
NCI-H226 lung = test system: NCI-H226 lung
HL-60(TB) leukemia = test system: HL-60(TB) leukemia
OVCAR-4 ovarian = test system: OVCAR-4 ovarian
SF-295 CNS = test system: SF-295 CNS
ACHN renal = test system: ACHN renal
HS 578T breast = test system: HS 578T breast
NCI-H460 lung = test system: NCI-H460 lung
SF-539 CNS = test system: SF-539 CNS
SK-MEL-5 melanoma = test system: SK-MEL-5 melanoma
A498 renal = test system: A498 renal

O=C(CNC(=O)c1ccccc1)Oc1c(Cl)c(Cl)c(Cl)c(Cl)c1Cl
TGI (786-0 renal): > 100 µM | TGI (COLO 205 colon): > 100 µM | TGI (NCI-H522 lung): 83.8 µM | TGI (SR leukemia): > 100 µM | TGI (HCT-116 colon): > 100 µM | TGI (SK-OV-3 ovarian): > 100 µM | TGI (HOP-62 NSCLC): > 100 µM | TGI (HT29 colon): > 100 µM | TGI (UO-31 renal): 45.2 µM | TGI (PC-3 prostate): 61.4 µM | TGI (SNB-19 CNS): > 100 µM | TGI (A549 NSCLC): > 100 µM | TGI (DU-145 prostate): 49.9 µM | TGI (MOLT-4 leukemia): > 100 µM | TGI (CCRF-CEM leukemia): > 100 µM | TGI (T-47D breast): > 100 µM | TGI (HCC-2998 colon): 60.6 µM | TGI (NCI-H23 lung): > 100 µM | TGI (UACC-62 melanoma): 53.8 µM | TGI (UACC-257 melanoma): 54.9 µM | TGI (OVCAR-3 ovarian): 53.3 µM | TGI (SF-268 CNS): > 100 µM | TGI (HCT-15 colon): > 100 µM | TGI (MCF7 breast): > 100 µM | TGI (K-562 leukemia): > 100 µM | TGI (MDA-MB-435): 94.1 µM | TGI (OVCAR-5 ovarian): > 100 µM | TGI (MALME-3M melanoma): 57.1 µM | TGI (CAKI-1 renal): 54.9 µM | TGI (SNB-75 CNS): > 100 µM | TGI (M14 melanoma): > 100 µM | TGI (EKVX NSCLC): 48 µM | TGI (SN12C renal): > 100 µM | TGI (SK-MEL-2 melanoma): 94.1 µM | TGI (RXF 393 renal): > 100 µM | TGI (NCI/ADR-RES ovarian): 82.5 µM | TGI (MDA-MB-231 breast): 66.1 µM | TGI (BT-549 breast): 58.1 µM | TGI (U251 CNS): > 100 µM | TGI (OVCAR-8 ovarian): 64 µM | TGI (IGROV1 ovarian): 63.5 µM | TGI (RPMI-8226 leukemia): 78.3 µM | TGI (SK-MEL-28 melanoma): > 100 µM | TGI (KM12 colon): 45.6 µM | TGI (LOX IMVI melanoma): > 100 µM | TGI (TK-10 renal): 94.1 µM | TGI (SW-620 colon): 67.1 µM | TGI (NCI-H226 lung): 88.6 µM | TGI (HL-60(TB) leukemia): 77.5 µM | TGI (OVCAR-4 ovarian): > 100 µM | TGI (SF-295 CNS): 79.9 µM | TGI (ACHN renal): 65.1 µM | TGI (HS 578T breast): 67.6 µM | TGI (NCI-H460 lung): > 100 µM | TGI (SF-539 CNS): 95.1 µM

Cc1cc2c(cc1C)[n+](=O)c(C(=O)C(C)(C)C)c(C(F)(F)F)n2[O-]
GI50 (786-0 renal): 29.4 µM | TGI (786-0 renal): > 100 µM | GI50 (COLO 205 colon): 54.4 µM | TGI (COLO 205 colon): > 100 µM | GI50 (NCI-H522 lung): 18.9 µM | TGI (NCI-H522 lung): 49.6 µM | GI50 (SR leukemia): 11.5 µM | TGI (SR leukemia): 33.2 µM | GI50 (SK-MEL-5 melanoma): 12.5 µM | TGI (SK-MEL-5 melanoma): 26.9 µM | GI50 (HCT-116 colon): 10.6 µM | TGI (HCT-116 colon): > 100 µM | GI50 (SK-OV-3 ovarian): 50 µM | TGI (SK-OV-3 ovarian): > 100 µM | GI50 (HOP-62 NSCLC): 17 µM | TGI (HOP-62 NSCLC): 59.1 µM | GI50 (HT29 colon): 31.7 µM | TGI (HT29 colon): > 100 µM | GI50 (UO-31 renal): 17.4 µM | TGI (UO-31 renal): 33.2 µM | GI50 (PC-3 prostate): 6.24 µM | TGI (PC-3 prostate): 39.2 µM | GI50 (SNB-19 CNS): 56.2 µM | TGI (SNB-19 CNS): > 100 µM | GI50 (A498 renal): 18.1 µM | TGI (A498 renal): 44.1 µM | GI50 (A549 NSCLC): 8.61 µM | TGI (A549 NSCLC): 26.2 µM | GI50 (DU-145 prostate): 5.45 µM | TGI (DU-145 prostate): 19.5 µM | GI50 (MOLT-4 leukemia): 8.2 µM | TGI (MOLT-4 leukemia): 29.3 µM | GI50 (CCRF-CEM leukemia): 12.3 µM | TGI (CCRF-CEM leukemia): 49.3 µM | GI50 (T-47D breast): 32.3 µM | TGI (T-47D breast): > 100 µM | GI50 (NCI-H23 lung): 16.1 µM | TGI (NCI-H23 lung): 47.6 µM | GI50 (UACC-62 melanoma): 17 µM | TGI (UACC-62 melanoma): 71.5 µM | GI50 (UACC-257 melanoma): 7.71 µM | TGI (UACC-257 melanoma): 41.2 µM | GI50 (OVCAR-3 ovarian): 21.2 µM | TGI (OVCAR-3 ovarian): 50.1 µM | GI50 (SF-268 CNS): 16.6 µM | TGI (SF-268 CNS): 82.5 µM | GI50 (HCT-15 colon): 13.7 µM | TGI (HCT-15 colon): 55.6 µM | GI50 (MCF7 breast): 20.8 µM | TGI (MCF7 breast): 77.7 µM | GI50 (K-562 leukemia): 4.3 µM | TGI (K-562 leukemia): 19.9 µM | GI50 (MDA-MB-435): 28.2 µM | TGI (MDA-MB-435): 78.9 µM | GI50 (OVCAR-5 ovarian): 8.51 µM | TGI (OVCAR-5 ovarian): 54.2 µM | GI50 (MALME-3M melanoma): 24.2 µM | TGI (MALME-3M melanoma): 68.1 µM | GI50 (CAKI-1 renal): 21.3 µM | TGI (CAKI-1 renal): 55 µM | GI50 (SNB-75 CNS): 45.9 µM | TGI (SNB-75 CNS): > 100 µM | GI50 (M14 melanoma): 27.5 µM | TGI (M14 melanoma): 80.8 µM | GI50 (EKVX NSCLC): 2.91 µM | TGI (EKVX NSCLC): 9.95 µM | GI50 (SN12C renal): 14.1 µM | TGI (SN12C renal): 62.7 µM | GI50 (SK-MEL-2 melanoma): 25.6 µM | TGI (SK-MEL-2 melanoma): 58.7 µM | GI50 (NCI/ADR-RES ovarian): 9.08 µM | TGI (NCI/ADR-RES ovarian): 27.5 µM | GI50 (MDA-MB-231 breast): 13.6 µM | TGI (MDA-MB-231 breast): 37.5 µM | GI50 (BT-549 breast): 12 µM | TGI (BT-549 breast): 50.5 µM | GI50 (U251 CNS): 20.8 µM | TGI (U251 CNS): > 100 µM | GI50 (OVCAR-8 ovarian): 3.62 µM | TGI (OVCAR-8 ovarian): 15.5 µM | GI50 (IGROV1 ovarian): 5.17 µM | TGI (IGROV1 ovarian): 20.3 µM | GI50 (RPMI-8226 leukemia): 3.57 µM | TGI (RPMI-8226 leukemia): 15.4 µM | GI50 (SK-MEL-28 melanoma): > 100 µM | TGI (SK-MEL-28 melanoma): > 100 µM | GI50 (KM12 colon): 25 µM | TGI (KM12 colon): 62.1 µM | GI50 (LOX IMVI melanoma): 9.53 µM | TGI (LOX IMVI melanoma): 25.7 µM | GI50 (TK-10 renal): 75.4 µM | TGI (TK-10 renal): > 100 µM | GI50 (SW-620 colon): 28.4 µM | TGI (SW-620 colon): > 100 µM | GI50 (NCI-H226 lung): 16.2 µM | TGI (NCI-H226 lung): 70.6 µM | GI50 (HL-60(TB) leukemia): 5.9 µM | TGI (HL-60(TB) leukemia): 24.5 µM | GI50 (OVCAR-4 ovarian): 26.7 µM | TGI (OVCAR-4 ovarian): > 100 µM | GI50 (SF-295 CNS): 28.8 µM | TGI (SF-295 CNS): 85.4 µM | GI50 (ACHN renal): 16.1 µM | TGI (ACHN renal): 34.5 µM | GI50 (HS 578T breast): 14.4 µM | TGI (HS 578T breast): 58.6 µM | GI50 (NCI-H460 lung): 13.7 µM | TGI (NCI-H460 lung): 34 µM | GI50 (SF-539 CNS): 16.6 µM | TGI (SF-539 CNS): 41.9 µM
